Data taken from ChEMBL document CHEMBL1146653, “Potent and selective, sulfamide-based human beta 3-adrenergic receptor agonists” (Bioorg Med Chem Lett, 2004).

Key:
[1] = target: Beta-2 adrenergic receptor (Homo sapiens) (UniProt P07550); test: Intrinsic activity (IA) human Beta-2 adrenergic receptor (at 30 uM, represent by the percentage of the maximal response attained by isoproterenol); format: functional
[2] = target: T1, Beta-3 adrenergic receptor (Homo sapiens, UniProt P13945); test: Intrinsic activity (IA) at human Beta-3 adrenergic receptor (represented by the percentage of the maximal response attained by isoproterenol); format: functional
Target sequence in this assay (P13945 whole entry, looked up): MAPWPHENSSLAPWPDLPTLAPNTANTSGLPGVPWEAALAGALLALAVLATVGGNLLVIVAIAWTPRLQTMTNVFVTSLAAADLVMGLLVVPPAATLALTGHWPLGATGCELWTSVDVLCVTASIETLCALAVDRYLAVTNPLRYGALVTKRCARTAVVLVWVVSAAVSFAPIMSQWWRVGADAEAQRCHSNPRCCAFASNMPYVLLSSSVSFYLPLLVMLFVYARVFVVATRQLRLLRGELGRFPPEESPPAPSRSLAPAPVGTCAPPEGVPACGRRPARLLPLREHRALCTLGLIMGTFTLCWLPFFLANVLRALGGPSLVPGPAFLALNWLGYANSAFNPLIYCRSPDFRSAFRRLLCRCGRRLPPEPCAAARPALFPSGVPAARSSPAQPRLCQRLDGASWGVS

[3] = target: Beta-1 adrenergic receptor (Homo sapiens) (UniProt P08588); test: Intrinsic activity (IA) at human Beta-1 adrenergic receptor (at 30 uM, represented by the percentage of the maximal response attained by isoproterenol); format: functional
[4] = target: T1, Beta-3 adrenergic receptor; test: Agonist activity (EC50) was assessed by measuring cAMP levels in CHO cells expressing cloned human Beta-3 adrenergic receptor; format: functional, cell-based
Target sequence in this assay (P13945 whole entry): as the sequence (P13945 whole entry, looked up) above

[5] = target: Beta-1 adrenergic receptor (Homo sapiens) (UniProt P08588); test: Intrinsic activity (IA) of 30 uM compound at human Beta-1 adrenergic receptor represent the percentage of the maximal response attained by isoproterenol

Chain of Beta-1 adrenergic receptor (Homo sapiens) (P08588 whole entry, looked up): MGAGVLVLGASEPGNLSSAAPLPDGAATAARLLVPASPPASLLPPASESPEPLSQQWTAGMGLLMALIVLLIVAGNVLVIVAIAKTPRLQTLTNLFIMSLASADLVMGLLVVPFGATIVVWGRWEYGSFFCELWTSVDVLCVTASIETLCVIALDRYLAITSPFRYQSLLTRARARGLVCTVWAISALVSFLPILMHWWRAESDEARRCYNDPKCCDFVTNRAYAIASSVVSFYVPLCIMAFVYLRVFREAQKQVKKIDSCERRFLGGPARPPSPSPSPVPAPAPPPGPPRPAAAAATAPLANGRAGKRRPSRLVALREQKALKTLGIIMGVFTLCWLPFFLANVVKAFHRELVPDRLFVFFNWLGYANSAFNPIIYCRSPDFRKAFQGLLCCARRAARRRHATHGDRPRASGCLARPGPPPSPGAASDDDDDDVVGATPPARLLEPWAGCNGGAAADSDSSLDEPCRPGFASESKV
Chain of Beta-2 adrenergic receptor (Homo sapiens) (P07550 whole entry, looked up): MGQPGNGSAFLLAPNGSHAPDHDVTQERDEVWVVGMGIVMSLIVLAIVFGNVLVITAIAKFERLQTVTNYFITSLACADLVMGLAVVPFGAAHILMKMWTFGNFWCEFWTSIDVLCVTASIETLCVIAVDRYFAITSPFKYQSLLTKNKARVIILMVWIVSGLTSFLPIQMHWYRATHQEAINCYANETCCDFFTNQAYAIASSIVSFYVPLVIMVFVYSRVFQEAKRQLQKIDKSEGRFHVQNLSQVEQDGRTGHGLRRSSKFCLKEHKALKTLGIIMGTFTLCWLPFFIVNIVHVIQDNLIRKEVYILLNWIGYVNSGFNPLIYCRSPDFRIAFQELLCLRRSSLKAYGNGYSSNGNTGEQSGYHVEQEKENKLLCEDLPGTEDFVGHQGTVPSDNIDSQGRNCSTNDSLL

Structure (SMILES) | IA [1] | IA [2] | IA [3] | EC50 [4] [µM] | IA [5]
CN(C)S(=O)(=O)Nc1ccc(CCNC[C@H](O)c2cccc(Cl)c2)cc1 | 6 | 75 | 5 | 0.299 | 
C[C@@H]1CN(S(=O)(=O)Nc2ccc(CC(C)(C)NC[C@H](O)c3cccnc3)cc2)C[C@H](C)O1 | 8 | 85 | 10 | 0.008 | 
CC(C)(Cc1ccc(NS(=O)(=O)Nc2ccccc2)cc1)NC[C@H](O)c1cccnc1 | 8 | 107 | 29 | 0.007 | 
O=S(=O)(Nc1ccc(CCNC[C@H](O)c2cccnc2)cc1)N1CCCCC1 | 6 | 77 | 7 | 0.099 | 
CC1CCN(S(=O)(=O)Nc2ccc(CCNC[C@H](O)c3cccnc3)cc2)CC1 | 8 | 80 | 6 | 0.036 | 
O=S(=O)(Nc1ccc(CCNC[C@H](O)c2cccnc2)cc1)N1CCC(c2ccccc2)CC1 | 2 | 100 | 2 | 0.023 | 
O=S(=O)(Nc1ccc(CCNC[C@H](O)c2cccnc2)cc1)c1ccc(-c2nc(-c3ccc(C(F)(F)F)cc3)cs2)cc1 | 1 | 92 | 1 |  | 
CN1CCN(S(=O)(=O)Nc2ccc(CC(C)(C)NC[C@H](O)c3cccnc3)cc2)CC1 | 4 | 79 | 7 | 0.041 | 
CC1CCN(S(=O)(=O)Nc2ccc(CC(C)(C)NC[C@H](O)c3cccnc3)cc2)CC1 | 6 | 91 | 12 | 0.01 | 
CC(C)(Cc1ccc(NS(=O)(=O)N2CCC(c3ccccc3)CC2)cc1)NC[C@H](O)c1cccnc1 | 9 | 106 | 20 | 0.047 | 
CN(C1CCCCC1)S(=O)(=O)Nc1ccc(CCNC[C@H](O)c2cccnc2)cc1 | 16 | 67 | 15 | 0.18 | 
CN(C1CCCCC1)S(=O)(=O)Nc1ccc(CCNC[C@H](O)c2cccc(Cl)c2)cc1 | 5 | 62 | 6 | 0.537 | 
CN(C)S(=O)(=O)N(C)c1ccc(CCNC[C@H](O)c2cccc(Cl)c2)cc1 | 1 | 105 | 2 | 9.9 | 
CN(C)S(=O)(=O)Nc1ccc(CCNC[C@H](O)c2cccnc2)cc1 | 11 | 84 | 6 | 0.265 | 
CC1CCN(S(=O)(=O)Nc2ccc(OCCNC[C@H](O)c3cccnc3)cc2)CC1 | 7 | 98 | 5 | 1.36 | 
CN(C)S(=O)(=O)Nc1ccc(OCCNC[C@H](O)c2cccnc2)cc1 | 4 | 96 | 3 | 0.943 | 
COCCNS(=O)(=O)Nc1ccc(CC(C)(C)NC[C@H](O)c2cccnc2)cc1 | 24 | 103 | 28 | 0.165 | 
O=S(=O)(Nc1ccc(CCNC[C@H](O)c2cccc(Cl)c2)cc1)N1CCCCC1 | 5 | 84 | 4 | 0.617 | 
C[C@@H]1C[C@H](C)CN(S(=O)(=O)Nc2ccc(CCNC[C@H](O)c3cccnc3)cc2)C1 | 17 | 95 | 11 | 0.024 | 
O=S(=O)(Nc1ccc(CCNC[C@H](O)c2cccnc2)cc1)NC1CCCCC1 | 0 | 71 | 0 | 1.46 | 
CC(C)(Cc1ccc(NS(=O)(=O)N2CCN(Cc3ccccc3)CC2)cc1)NC[C@H](O)c1cccnc1 | 13 | 105 | 46 | 0.018 | 
CC(C)(Cc1ccc(NS(=O)(=O)NC2CCCCC2)cc1)NC[C@H](O)c1cccnc1 | 19 | 110 | 17 | 0.025 | 
C[C@@H]1C[C@H](C)CN(S(=O)(=O)Nc2ccc(CC(C)(C)NC[C@H](O)c3cccnc3)cc2)C1 | 11 | 89 | 7 | 0.004 | 
O=S(=O)(Nc1ccc(CCNC[C@H](O)c2cccc(Cl)c2)cc1)NC1CCCCC1 | 7 | 63 |  | 0.464 | 10
CN(C)S(=O)(=O)Nc1ccc(CC(C)(C)NC[C@H](O)c2cccnc2)cc1 | 7 | 98 | 10 | 0.038 | 
